Results on five compounds are retold here after patent US20260125351A1, “COMPOUND FOR INDUCING EXPRESSION OF ANTI-AGING GENE KLOTHO AND USE THEREOF” (KLOTHO SCIENCES, priority 2019, published 2026).

One data set deals with klotho protein. Kind of data set: Klotho protein expression level in cisplatin-treated HK-2 cells. It counts as cell-based, human. Conditions: cisplatin (20 μM) disease model, KS1 3 μM, after 24 hours (FIG. 7B). How it is done:
As in the protocol in FIG. 7A, a disease model was made by treating HK-2 cells (human renal cells) with cisplatin (20 μM), and then treated with a KS1 compound (Example 10) (3 μM). After 24 hours, the expression degree of the klotho protein was confirmed by obtaining the cells.

Data set [1] concerns klotho (KL) gene. The experiment in a line: Quantitative evaluation of klotho (KL) gene expression level using general PCR in RPTEC cells. Conditions: general PCR (FIG. 5). Also on record: dose or concentration left out as unconfirmed. Format: cell-based, human. How it is done:
After RPTEC cells, which are epithelial cells of the proximal tubule of the human kidneys, were each treated with the compounds of Examples 7 to 10 at […] for 6 hours. RNA was extracted from the cells, and cDNA was prepared from the extracted RNA using a Superscript II kit from Thermo Fisher Scientific, Inc., and then general PCR was performed.
Information on the primers used in the experiment is as follows.
The DNA amplified by PCR was confirmed by staining with ethidium bromide after electrophoresis on an agarose gel, and the amounts of DNA in the band were quantitatively compared using the SPEedyQuant program, and are illustrated in FIG. 5.

Data set [2] concerns human kidney-2 (HK2) cells. Kind of data set: Toxicity test, EZ-Cytox kit. Conditions: 12.5 μM or 25 μM, 24 hours. Format: cell-based. How it is done:
Cultured human kidney-2 (HK2) cells were treated with Comparative Example 1, Example 2 and Examples 9 to 10 at a concentration of 25 μM or 12.5 μM, and after 24 hours, cytotoxicity was measured using an EZ-Cytox kit.

The test system of data set [3] is unilateral ureter obstruction model. The experiment in a line: Unilateral ureter obstruction (UUO) model. It counts as in vivo. The settings on record: UUO mice, 20 mg/kg/day into the abdominal cavity. The method, then: In a unilateral ureter obstruction model, 5-week-old male […] mice were used. After the right ureter was tied with a thread to create a unilateral ureter obstruction model, the KS1 compound (20 mg/kg/day) was injected into the abdominal cavity daily starting 24 hours later. After that, samples were collected by sacrificing the mice on days 7 and 14 and tested (FIG. 8A).

The subject of data set [4] is spontaneous hypertensive rat (SHR). The experiment in a line: Effect of reducing hypertension in spontaneous hypertensive rat. It counts as in vivo. The settings on record: SHR rats. How it is done: A 6-week-old rat male WKY/lzm was used as a normal control, and a 6-week-old rat male SHR/lzm was used as an experimental group in which hypertension was induced. All animals were purchased from the Central Laboratory Animal, and experiments were conducted at the rearing facility in a re-entry area within the Experimental Animal Center of the Osong Medical Innovation Foundation. The […] were quarantined and acclimatized for 7 days after receipt, and the health of the animals was observed during this period.
Group separation was performed on the end day of instrument acclimatization (group separation day) among animals having no general symptoms. […]
• (1) A test material and a positive control material were dissolved in an excipient in a liquid amount of 20 mIJkg according to the corresponding concentration. • (2) After quarantine and acclimatization, the excipient, the test material, and the positive control material were administered after group separation based on the blood pressure and body weight of animals. • (3) All administration groups were administered orally 7 times/week for 8 weeks using a 3 mL syringe with a liquid amount of 20 mL/kg based on the body weight measured once a week. […]
On days 36 and 64 after administration of the drug, blood pressure was measured by placing the animals in a blood pressure measuring frame and allowing the tails to come out. […]

Data set [5] deals with Human renal proximal tubule epithelial cells (RPTECs). The experiment in a line: Inhibition of cellular senescence, senescence β-galactosidase staining. It counts as cell-based. The method, then: Human renal proximal tubule epithelial cells (RPTECs), which are renal tubular epithelial cells, were purchased from Lonza, and as a culture medium, a REGM kit supplied by the same company was also used. Cells were cultured in a 37° C. incubator under 5% CO2 conditions. When the cells reached 80% saturation, the cells were treated with trypsin, transferred to a new culture dish, and subcultured. A compound was attached to the medium such that the final concentration was 2.5 μM, and a constant concentration was maintained by adding the compound thereto during each passage. […] As for the cells inducing senescence, cells subcultured 17 times (#17) in total were used.
“Senescence β-galactosidase staining kit” from Cell Signaling Technology, Inc. was used to confirm the degree of senescence of cells. On the day of the experiment, a staining solution was added to the cells, and the stained cells were confirmed 8 hours later. The number of stained cells was confirmed and expressed as a ratio among the total number of cells observed under a 200-fold microscope, and the number of stained cells at three different locations per sample was counted and averaged. As the senescence of the cells progresses, the expression of the enzyme β-galactosidase increases, and therefore the stained cells may be determined as more senescent cells than the non-stained cells.

Data set [6] deals with promoter of the human klotho gene. Kind of data set: Luciferase expression experiment, reporter gene pHKP-luc (promoter up to -2.1 kb upstream) in RPTECs. It counts as cell-based. The method, then: (§1) In order to evaluate whether the klotho gene was expressed by the evaluation of luciferase activity, human renal proximal tubule epithelial cells (RPTECs) (ATCC CRL-4031), which are epithelial cells of the proximal tubule of the human kidneys, were purchased from Lonza, USA and used.
(§2) For culturing, a Renal Epithelial Growth Medium (REGM™) Bullet kit, also manufactured by the same Lonza company, was used, and the cells were cultured under conditions of 37° C. and 5% CO2. As a plasmid for luciferase expression, a plasmid in which the promoter site of a human KL (klotho) gene was disposed to regulate the expression of a firefly luciferase gene was used.
The plasmid was incorporated into cells using an X-treme GENE transfection reagent from Roche. The activity of luciferase expressed in cells was measured using a Dual-Luciferase reporter assay system manufactured by Promega. After the cultured cells were treated with each compound at an indicated concentration for 24 hours, the activity of luciferase was measured. It is indirectly shown that the expression of the klotho gene may be increased when the activity of luciferase is high.
The results of confirming the expression of a reporter gene by treating RPTECs, which are epithelial cells of the proximal tubule of the human kidneys, with Examples 1 to 6 at concentrations of 0.5, 1 and 5 μM and Comparative Example 1 at a concentration of 5 μM and using a reporter gene (pHKP-luc) including a promoter included up to −2.1 kb upstream of the human klotho gene are illustrated in FIGS. 2 and 3.
On the technique in general: A reporter such as luciferase makes a cellular process visible.

For data set [7] the test system is unchanged. The experiment in a line: Luciferase expression experiment, klotho promoter reporter (1.7 kbp or 240 bp) in RPTEC cells. Format: cell-based. The settings on record: 5 μM, 24 hours, reporter with klotho promoter to 1.7 kbp or 240 bp, among Comparative Examples 1 to 4 (FIG. 1). How it is done: as §1, §2
The plasmid was incorporated into cells using an X-treme GENE transfection reagent from Roche. The activity of luciferase expressed in cells was measured using a Dual-Luciferase reporter assay system manufactured by Promega. After the cultured cells were treated with each compound at an indicated concentration for 24 hours, the activity of luciferase was measured. It is indirectly shown that the expression of the klotho gene may be increased when the activity of luciferase is high. […]

In data set [8] the test system is klotho (KL) gene. The experiment in a line: Quantitative evaluation of klotho (KL) gene expression level using real-time PCR in RPTEC cells. Format: cell-based, human. The settings on record: RPTEC cells treated for 6 hours; real-time PCR (FIG. 4). How it is done:
For RNA extraction from RPTEC cells, which are epithelial cells of the proximal tubule of the human kidneys, treated with the compounds of Comparative Example 1 and Examples 1 and 2 for 6 hours, an RNeasy kit from Qiagen Inc. was used. The results of preparing cDNA from extracted RNA using a Superscript II kit from Thermo Fisher Scientific. Inc. and performing the quantitative evaluation using Taqman Gene Expression assays from Applied Biosystems as a klotho (KL) gene-specific kit are illustrated in FIG. 4.

The mark [9] stands for this setting: RPTECs, Examples at 0.5, 1 and 5 μM, Comparative Example 1 at 5 μM, pHKP-luc (FIG. 2).

In the case of `N.N.[Cl][Pt][Cl]` [cisplatin, reference compound], the “expression of the klotho protein” value with klotho protein is on record as “decreased”.

Take `Fc1ccc(Nc2nc3ccccc3o2)cc1F` [Example 10, N-(3,4-difluorophenyl)benzo[d]oxazol-2-amine]: in the data set on klotho (KL) gene [1], the “expression level of the klotho (KL) gene relative to Comparative Example 1” value is “about 10 times”. Also, the “improvement of toxicity compared to Comparative Example 1” value in data set [2] is given as at least 20%. The cytotoxicity result in data set [2] (EZ-Cytox (FIG. 6)) is “least toxicity”. Also, the “expression of the klotho protein” value in the data set with klotho protein is reported as “increased”. In data set [3] (days 7 and 14 (FIG. 8B)), the “renal hypertrophy (kidney size)” value is “no difference in size”. In addition, the “nuclear and cytoplasmic changes, H&E staining” value in data set [3] (one-week and two-week samples (FIG. 9)) is given as “large reduction in tissue destruction”. In addition, the klotho protein expression result in data set [3] (one-week sample (FIG. 12)) is listed as “increased”. For the same compound, in data set [3] (versus UUO model not treated with KS1 (FIG. 10)), the “fibrosis progression, Sirius Red staining” value is reported as “fibrosis occurred less”. The “degree of apoptosis, TUNEL staining” value in [3] (versus UUO model not treated with KS1 (FIG. 11)) was “remarkably reduced”. For the same compound, the “expression level of MMP-9 protein (inflammation marker)” value in [3] (week 1 and week 2 (FIG. 13)) is recorded as “remarkably reduced”. Further, the “blood pressure reduction effect on co-administration with losartan” value in data set [4] (KS1 co-administered with losartan, versus each drug administered independently (FIG. 14)) is recorded as “better blood pressure reduction effect”. For the same compound, in data set [4] (oral 20 mg/kg/day for 8 weeks, measured days 36 and 64 (FIG. 14)), the systolic pressure result was “remarkably reduced”. Also, the “cells stained (senescence β-galactosidase)” value in data set [5] (RPTECs subcultured 17 times, 2.5 μM in medium, DMSO about 90% (FIG. 15)) is “about 70%”. The “decrease in degree of senescence compared to DMSO” value in [5] (RPTECs, 17 passages, 2.5 μM) is “about 20%”.

Regarding `O=C(Nc1nc2ccccc2o1)c1ccc([N+](=O)[O-])cc1Cl` [Example 1, N-(benzo[d]oxazol-2-yl)-2-chloro-4-nitrobenzamide], the “expression of the reporter gene” value in data set [6] (setting [9]) is “at a level similar to that of Comparative Example 1”.

On to `O=C(Nc1ccccc1Cl)c1c[nH]c2ccccc12` [Comparative Example 1, N-(2-chlorophenyl)-1H-indole-3-carboxamide], for which the luciferase activity result in data set [7] is on record as “highest”.

On to `Cc1ccc2oc(Nc3ccc(Cl)c(Cl)c3)nc2c1` [Example 2], for which the “expression of the reporter gene” value is “at a level similar to that of Comparative Example 1” in data set [6] (RPTEC cells, 5 μM, pHKP-luc (FIG. 3)) and “at a level similar to that of Comparative Example 1” in [6] (setting [9]). Moreover, the “mRNA expression level of the klotho (KL) gene” value in the data set with klotho (KL) gene [8] is listed as “at a level similar to that of Comparative Example 1”.
